From patent publication EP1310250A1, “Use of the compound 2-methoxyphenyl-1-methyl-5P-methylbenzoyl-pyrrol-2-acetamido acetate for the production of an antiinflammatory drug with prevention of gastric hypersecretion and renal impairment” (MEDOSAN Ricerca S.r.l., priority 1997, dated 1999)

System: rat gastric mucosa
Details: male, Wistar, in vivo, po, 4 days
Protocol: The animals entered in the trial, randomized and divided into groups of 6 rats each, were fasted for 16 h prior to treatment, with access to water ad libitum. They were re-fed 1 h after drug administration. The compound 2-methoxyphenyl-1-methyl-5p-methylbenzoyl-pyrrol-2-acetamido acetate and the other reference NSAIDs, suspended in 1% carboxymethylcellulose (CMC) solution, were orally administered by gastric gavage in a volume of 6ml/kg for four consecutive days. Controls received the vehicle in the same way as the treated animals. 4 h after the last administration the animals were killed by ether overdose; the stomachs were removed, rinsed with 10 ml of saline and immersed in 1% formalin. They were later opened along the greater curvature and the mucosa examined for lesions.
The seriousness of the lesion was quantified according to a scale graduated from 1 to 3 according to the size of the lesions: 1= ulcer < 1mm; 2= ulcer 1-2mm; 3= ulcer > 2mm. The total sum was divided by 10 to obtain the "erosion index". The gastric lesions were evaluated by two independent investigators under blind conditions according to Main & Whittle method (BJ Pharmac 1975:53; p. 217-224).
Since the average daily dose in man (for the anti-inflammatory activity) is 600 mg, the comparative efficacious dose in the rat is in the ratio of 12:1. More precisely, comparative evaluation with the other NSAID compounds was calculated as follows: 600 mg/die: 50 mg/kg = daily dose of reference NSAID in man: X [formula] where X represents the daily dose of the reference NSAID in rat. This criterion keeps into account the "real" activity ratio in man. In this work the "ratio to rat dosage" has also been included which keeps into account ratios homogeneous to the same animal species. To evaluate the "ratio to rat dosage" the ID50 has been determined using the carrageenin-induced oedema as inflammatory test.
In order to exacerbate possible side effects on the stomach the dosage of amtolmetin guacyl was quadruplicated.

Compound: COc1ccccc1OC(=O)CNC(=O)Cc1ccc(C(=O)c2ccc(C)cc2)n1C [amtolmetin guacyl, 2-methoxyphenyl-1-methyl-5p-methylbenzoylpyrrol-2-acetamido acetate]
- Gastrolesive index: 1.0
